# Results from US20260021181A1, “CHIMERIC COSTIMULATORY RECEPTORS, CHEMOKINE RECEPTORS, AND THE USE OF SAME IN CELLULAR IMMUNOTHERAPIES” (Iovance Biotherapeutics, Inc., priority 2022, published 2026).
# B1: 38A1-IgG4-HA (antibody)
# chain: EVQLVESGGGLVQPGGSLRLSCAASGFTFSNYAMSWVRQAPGKGLEWVSTISGSGGTTYYADSVKGRFTISRDNSKNTLYLQMNSLRVEDTAVYYCAKDWFRSSSPDAFDIWGQGTTVTVSAGGGGSGGGGSGGGGSGAPSYVLTQPPSVSVAPGQTARITCGGNNIGRKIVHWYQQRPGQAPVLVIYYDTDRPAGIPERFSGSNSGNMATLTISTVGAGDEADYYCQVWDTGSDHVVFGGGTKLTVL
# notes: The order of the parts and the format (scFv-IgG4 Fc-HA) of the tested protein are not spelled out; Detected with anti-HA-APC; also called anti-PD-L1 Ab clone 38A1-IgG4-HA; scFv-Fc antibody 38A1; not shown: IgG4 part, known only from the name 38A1-IgG4-HA; HA tag
# B2: 38A1-IgG4-HA (antibody)
# chain: B1 chain
# B3: 19H9-IgG4-Flag (antibody)
# chain: QVQLQESGGGLVKPGGSLRLSCAASGFTFSSYSMNWVRQAPGKGLEWVSGINTAGDTHYPESVKGRFTISRDNARNSLNLQMNSLRAEDTAVYYCVRERVEREYSGYDAFDIWGQGTTVTVSAGGGGSGGGGSGGGGSGAPNFMLTQPHSVSESLGKTVTISCTGSSGSIARKFVQWYQQRPGSSPTTVIYENNQRPSGVSDRFSGSIGSSSNSASLTISGLKTEDEADYYCQSYDSSNVVFGGGTKVTVL
# B4: 19H9-IgG4-Flag (antibody)
# chain: B3 chain
# notes: The order of the parts and the format of the tested protein are not spelled out; Detected with anti-Flag-AF488; also called 19H-IgG4-Flag; scFv-Fc antibody 19H9; not shown: IgG4 part, known only from the name 19H9-IgG4-Flag; Flag tag
# How the values were obtained:
# PD-L1 [1] = target: PD-L1 (Homo sapiens, UniProt Q9NZQ7); experiment: Hek-IL-18 SEAP reporter assay of CCR8 and CCR8.2 stimulated with PD-L1; type: cell-based; conditions: 650 nm, IL-18 standard
# Chain of PD-L1 (Homo sapiens, UniProt Q9NZQ7) (Q9NZQ7 19-290): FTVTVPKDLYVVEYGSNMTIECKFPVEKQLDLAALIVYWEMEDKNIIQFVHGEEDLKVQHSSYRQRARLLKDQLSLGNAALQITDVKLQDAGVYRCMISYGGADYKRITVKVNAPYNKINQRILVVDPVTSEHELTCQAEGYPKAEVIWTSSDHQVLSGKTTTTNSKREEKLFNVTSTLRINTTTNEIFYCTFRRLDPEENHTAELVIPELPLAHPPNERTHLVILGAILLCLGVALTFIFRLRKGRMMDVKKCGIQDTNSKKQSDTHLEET
# Protocol: The biological function of the CCR constructs was tested with Hek-IL-18 SEAP reporter lines. CCR8 and CCR8.2 transduced HekIL-18 reporter cells (5×10^4) were stimulated with the indicated concentration of PD-L1 (His tagged) in the presence of anti-His antibody (antibody:protein ratio=2:1; e.g., for 5 μg/mL PD-L1, add 10 μg/mL anti-His antibody). After 24 hours, supernatants were harvested, and SEAP level was determined with a spectrophotometer at 650 nm after adding Quanti-blue solution. CCR12 and CCR12.2 transduced HekIL-18 reporter cells (5×10^4) were stimulated with the indicated concentration of TROP-2 (His tagged) in the presence of anti-His antibody (antibody:protein ratio=2:1). After 24 hours, supernatants were harvested, and SEAP level was determined with a spectrophotometer at 650 nm after adding Quanti-blue solution.
# TIL [2] = experiment: Cytokine expression of TILs after overnight anti-CD3/CD28 bead stimulation; type: cell-based
# Source text: Control or decitabine-treated cryopreserved TILs were thawed and stained for flow cytometry analysis.
# TIL [3] = experiment: AKT inhibitor (ipatasertib) added during ex vivo TIL expansion: expansion, viability, phenotype; type: cell-based
# Protocol: Patient tumors from different indications were received, fragmented, and subjected to an expansion protocol for TIL manufacturing. Different doses (0.3 μM and 1 μM) of the pan-AKT inhibitor ipatasertib were added to the culture during ex vivo expansion. The expansion potential, as well as the phenotypic and functional characteristics were evaluated on the final TIL product. Eight tumors, including tumors from melanoma, NSCLC, head and neck cancer, ovarian cancer, and breast cancer, were used in combination with the Gen 2 process. […] Expansion, viability and T cell distribution in control and AKT inhibitor-treated TILs are shown. TILs were left untreated or treated with increasing concentrations of the pan-AKT inhibitor ipatasertib. Treatment was added either during the pre-REP and REP (blue bars) or during the REP stage only (purple bars). Fold expansion and viability of TIL at the end of the 22-day expansion process are shown. Frequency of CD8^+, CD4^+ and CD4^+ (Foxp3^+) cells after the expansion process on cryopreserved cells are also shown.
# [4] = target: T1, human PD-L1 on hPD-L1 Raji cells (human, UniProt Q9NZQ7 19-290); experiment: flow cytometry on hPD-L1 Raji cells, titration in the presence of the other antibody
# T1 construct: whole, on cells
# T1 sequence (Q9NZQ7 19-290): as above
# PD-L1 [5] = target: T2, PD-L1 (human, UniProt Q9NZQ7 19-238, limits assumed); experiment: EC50 of anti-PD-L1 antibody clone; assay not given
# T2 construct: also called hPD-L1; CD274
# T2 sequence (Q9NZQ7 19-238 limits assumed): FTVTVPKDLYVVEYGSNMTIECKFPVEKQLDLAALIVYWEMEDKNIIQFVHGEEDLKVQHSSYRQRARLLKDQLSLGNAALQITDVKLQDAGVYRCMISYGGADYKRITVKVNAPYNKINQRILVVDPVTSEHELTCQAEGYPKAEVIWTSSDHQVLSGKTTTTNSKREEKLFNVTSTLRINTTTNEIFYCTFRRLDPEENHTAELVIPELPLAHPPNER
molecule,measurement,setting,value
IL-18: IL-18 standard in Hek-IL-18 SEAP reporter assay,IL-18 stimulation equivalent to an OD value of 0.5,PD-L1 [1],about 3.175 pg/mL
CC(C)NC[C@@H](C(=O)N1CCN(c2ncnc3c2[C@H](C)C[C@H]3O)CC1)c1ccc(Cl)cc1 [ipatasertib],frequency of IFNγ+TNFα+CD8+ T cells,TIL [2],increase
same,cytokine output following stimulation,"TIL [2]; 1 μM at pre-REP and REP, anti-CD3/CD28 beads overnight, bead-to-cell ratio 1:5",higher cytokine output
same,IL-7R and CXCR3 expression on CD8+ TILs,TIL [3],increase
same,TOX expression following stimulation,TIL [3],lower
same,frequency of CD8+ TEMRA cells,TIL [3],increase
same,frequency of less differentiated CD8+CD69−CD39− T cells on CD8+ and CD4+ TILs,TIL [3],increases
same,expansion and viability of TILs relative to controls,TIL [3]; 1 μM dose,equivalent
same,expression of CD38 and transcription factors T-bet and TOX in CD39− CD69− cells,TIL [3]; 1 μM dose,reduced expression
same,population of less differentiated CD39− CD69− cells,TIL [3]; 1 μM dose,doubled
same,"T cell ratios (CD8+, CD4+, CD4+ Foxp3+)",TIL [3]; after the expansion process,without affecting
same,TIL expansion and viability,"TIL [3]; pre-REP and REP or REP only, end of 22-day expansion",maintains
B1,binding result,[4],binds
B2,EC50,PD-L1 [5],0.404 nM
B3,EC50,PD-L1 [5],0.125 nM
B4,binding result,[4],binds
